Experimental data reported in patent US20100075899A1, “TARGETED PHOTODYNAMIC THERAPY AGENT” (TRUSTEES OF THE UNIVERSITY OF PENNSYLVANIA, priority 2006, published 2010).

Legend:
[1] = test system: KB cells (FR+); assay: Flow cytometry uptake (Pyro fluorescence), KB cells; type: cell-based, human
Procedure: (§1) Flow cytometry experiments. KB, HT 1080, and CHO cells were seeded in T25 flasks (each flask 10^6 cells) and grown for 1 day in complete MEM (KB cells and HT 1080 cells) or complete F12K (CHO cells) medium. […] The cells were detached by 0.25% Trypsin-EDTA, fixed by 1% formaldehyde (methanol free) in PBS, resuspended in 1 mL of PBS and immediately analyzed on a BD LSRII machine at the Flow Cytometry Laboratory, Abramson Cancer Center at the University of Pennsylvania focusing on Pyro fluorescence (exc. 633 nm, em. 695 nm).

[2] = test system: HT 1080 cells (FR−); assay: Flow cytometry uptake (Pyro fluorescence), HT 1080 cells; type: cell-based, human
Procedure: as §1

[3] = test system: CHO cells (FR−); assay: Flow cytometry uptake (Pyro fluorescence), CHO cells; type: cell-based, Chinese hamster
Procedure: as §1

[4] = type: physicochemical
Procedure: Pyro-[…] (PP) Pyro-[…]-Folate (PPF) were purified by HPLC (Waters 600 Controller with a 2996 Photodiode Array Detector). The eluents were A=0.1M TEAA (pH 7) and B=acetonitrile and the method used for all injections was 90% of A and 10% of B to 100% of B in 45 minutes with flow 1.5 mL/min on a Zorbax 300SB-C3 column The coupling reagents HBTU (O-(Benzotriazol-1-yl)-N,N,N′,N′-tetramethyluronium hexafluorophosphate) and HOBt (1-Hydroxybenzotriazole) were purchased from Fluka and ACROS respectively. MALDI-ToF was measured on an Applied Biosystems Voyager DE Mass Spectrometer and fluorescence was measured on a Perkin Elmer LS50B Luminescence Spectrometer. We acquired confocal images using a Leica TCS SP2 Confocal Microscope and Xenogen images at the Bioluminescence Molecular Imaging Core facility at UPenn on an IVIS Xenogen Imager. KB cells (human epidermal cancer cells; folate receptor positive), HT 1080 cells (human fibrosarcoma cells; folate receptor negative), and CHO (Chinese hamster ovary cells; folate receptor negative) were purchased from ATCC. […]

In the case of Pyro-K-Folate [PKF], the “uptake efficiency into KB cells relative to Pyro-GDEVDGSGK-Folate” value [1] is reported as 50%, the “uptake efficiency PPF versus PKF in HT 1080 cells” value [2] is reported as “with the same efficiency” and the “uptake efficiency PPF versus PKF in CHO cells” value [3] is reported as “with the same efficiency”. For the same substance, the “solubility in water compared with PPF” value [4] was “less soluble in water” and the “hydrophobicity (HPLC) compared with PPF” value ([4]; HPLC) was “more hydrophobic”.
